Consider five molecules from ChEMBL document CHEMBL5465560, “Selectivity Literature for EUbOPEN Chemogenomic Library” (2024).

In test [1] the target is 3',5'-cyclic-AMP phosphodiesterase 4A (Homo sapiens, UniProt P27815). Description: Selectivity interaction (Eurofins-Panlabs Screen) EUB0001548a PDE4A. The following applies: at 10 µM.
Test [2] deals with Sodium/nucleoside cotransporter 1 (Homo sapiens, UniProt O00337). Kind of test: Selectivity interaction (Eurofins-Panlabs Screen (enzymatic assay)) EUB0001548a SLC28A1.
Test [3] deals with Sodium channel protein type 2 subunit alpha (Homo sapiens) (UniProt Q99250). Description: Selectivity interaction (Eurofins-Panlabs Screen) EUB0001548a SCN2A. The following applies: at 10 µM.
In test [4] the target is T1, Dual specificity tyrosine-phosphorylation-regulated kinase 1B (Homo sapiens, UniProt Q9Y463). Kind of test: Selectivity interaction (Kinome Scan (DiscoverX, competition binding assay)) EUB0001548a DYRK1B.
Test [5] deals with T2, Gamma-aminobutyric acid receptor subunit alpha-1 (Homo sapiens) (UniProt P14867).
T2 sequence (whole entry): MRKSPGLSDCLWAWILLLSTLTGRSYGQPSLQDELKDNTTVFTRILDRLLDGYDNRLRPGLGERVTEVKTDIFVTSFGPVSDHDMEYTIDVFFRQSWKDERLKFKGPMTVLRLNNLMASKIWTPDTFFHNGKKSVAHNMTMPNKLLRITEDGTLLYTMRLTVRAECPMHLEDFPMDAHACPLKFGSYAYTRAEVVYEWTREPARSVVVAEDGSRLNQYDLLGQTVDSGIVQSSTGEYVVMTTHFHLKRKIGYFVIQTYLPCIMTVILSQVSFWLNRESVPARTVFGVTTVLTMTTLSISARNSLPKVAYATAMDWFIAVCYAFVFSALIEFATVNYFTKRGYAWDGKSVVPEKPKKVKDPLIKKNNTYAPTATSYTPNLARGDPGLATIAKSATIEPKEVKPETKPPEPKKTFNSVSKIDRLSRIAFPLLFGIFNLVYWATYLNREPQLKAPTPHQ
Description: Selectivity interaction (Eurofins-Panlabs Screen) EUB0001548a GABRA1. Conditions: at 10 µM.

The target in test [6] is T1, Dual specificity tyrosine-phosphorylation-regulated kinase 1B. Kind of test: Selectivity interaction (KinomeScan (DiscoverX)) EUB0001548a DYRK1B. The following applies: at 1 µM.
The target of test [7] is Prostaglandin G/H synthase 1 (Homo sapiens) (UniProt P23219). Kind of test: Selectivity interaction (Eurofins-Panlabs Screen) EUB0001548a PTGS1. The following applies: at 10 µM.
The target of another test is Adenosine receptor A2a (Homo sapiens, UniProt P29274). Description: Selectivity interaction (Eurofins-Panlabs Screen) EUB0001548a ADORA2A. The following applies: at 10 µM.
Test [8] concerns the target T3, Mitotic checkpoint serine/threonine-protein kinase BUB1 (Homo sapiens, UniProt O43683). Kind of test: Selectivity interaction (KinomeScan (DiscoverX, competition binding assay)) EUB0001548a BUB1.
For test [9], the target named is T3, Mitotic checkpoint serine/threonine-protein kinase BUB1. Description: Selectivity interaction (TR-FRET kinase assay ) EUB0001548a BUB1.
Test [10] addresses Serine/threonine-protein kinase 10 (Homo sapiens) (UniProt O94804). Kind of test: Selectivity interaction (KinomeScan (DiscoverX)) EUB0001548a STK10. Conditions: at 1 µM.
For test [11], the target named is Sodium/nucleoside cotransporter 1 (Homo sapiens) (UniProt O00337). Description: Selectivity interaction (Eurofins-Panlabs Screen) EUB0001548a SLC28A1. Conditions: at 10 µM.
The target of test [12] is T2, Gamma-aminobutyric acid receptor subunit alpha-1 (Homo sapiens). Kind of test: Selectivity interaction (GPCR panel (PDSP screen)) EUB0001492b GABRA1. Conditions: at 10 µM.
In test [13] the target is D(4) dopamine receptor (Homo sapiens) (UniProt P21917). Description: Selectivity interaction (GPCR panel (PDSP screen)) EUB0001492b DRD4. The following applies: at 10 µM.
For test [14], the target named is T4, 4-aminobutyrate aminotransferase, mitochondrial (Homo sapiens, UniProt P80404). Description: (§1) Selectivity interaction (GPCR panel (PDSP screen)) EUB0001492b ABAT. The following applies: at 10 µM.
The target in a further test is D(2) dopamine receptor (Homo sapiens, UniProt P14416). Kind of test: Selectivity interaction (GPCR panel (PDSP screen)) EUB0001492b DRD2. Conditions: at 10 µM.
Test [15] has as its target T5, Alpha-1A adrenergic receptor (Homo sapiens) (UniProt P35348).
T5 sequence (whole entry): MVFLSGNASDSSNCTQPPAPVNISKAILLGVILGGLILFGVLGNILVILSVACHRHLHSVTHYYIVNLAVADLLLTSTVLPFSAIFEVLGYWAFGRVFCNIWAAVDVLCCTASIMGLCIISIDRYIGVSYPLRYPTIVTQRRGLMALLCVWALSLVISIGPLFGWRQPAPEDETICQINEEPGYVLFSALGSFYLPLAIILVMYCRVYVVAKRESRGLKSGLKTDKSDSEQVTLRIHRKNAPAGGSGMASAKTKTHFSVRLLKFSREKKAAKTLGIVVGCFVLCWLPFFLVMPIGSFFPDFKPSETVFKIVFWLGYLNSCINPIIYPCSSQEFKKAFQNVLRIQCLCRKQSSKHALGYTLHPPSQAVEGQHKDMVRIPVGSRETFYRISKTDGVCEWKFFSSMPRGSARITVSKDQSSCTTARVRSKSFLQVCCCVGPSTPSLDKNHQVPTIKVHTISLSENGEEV
Description: Selectivity interaction (GPCR panel (PDSP screen)) EUB0001492b ADRA1A. Conditions: at 10 µM.

Test [16] concerns the target T6, Alpha-2C adrenergic receptor (Homo sapiens) (UniProt P18825).
T6 sequence (whole entry): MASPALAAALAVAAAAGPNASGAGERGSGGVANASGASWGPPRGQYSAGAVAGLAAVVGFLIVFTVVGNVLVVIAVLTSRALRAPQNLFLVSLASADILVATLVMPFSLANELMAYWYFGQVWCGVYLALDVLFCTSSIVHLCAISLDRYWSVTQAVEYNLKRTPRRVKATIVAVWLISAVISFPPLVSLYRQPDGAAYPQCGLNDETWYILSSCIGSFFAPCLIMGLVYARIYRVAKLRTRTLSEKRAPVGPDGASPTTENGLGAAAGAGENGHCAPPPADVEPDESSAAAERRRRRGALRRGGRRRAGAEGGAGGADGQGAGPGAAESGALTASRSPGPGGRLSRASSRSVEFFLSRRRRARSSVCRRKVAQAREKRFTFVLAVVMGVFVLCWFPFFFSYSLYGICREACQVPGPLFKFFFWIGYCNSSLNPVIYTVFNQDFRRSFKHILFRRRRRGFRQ
Kind of test: Selectivity interaction (GPCR panel (PDSP screen)) EUB0001492b ADRA2C. The following applies: at 10 µM.

The target of test [17] is Muscarinic acetylcholine receptor M3 (Homo sapiens, UniProt P20309). Kind of test: Selectivity interaction (GPCR panel (PDSP screen)) EUB0001492b CHRM3. Conditions: at 10 µM.
Test [18] concerns the target Beta-3 adrenergic receptor (Homo sapiens) (UniProt P13945). Description: Selectivity interaction (GPCR panel (PDSP screen)) EUB0001492b ADRB3. Conditions: at 10 µM.
Another test addresses D(1A) dopamine receptor (Homo sapiens, UniProt P21728). Description: Selectivity interaction (GPCR panel (PDSP screen)) EUB0001492b DRD1. Conditions: at 10 µM.
The target in test [19] is Alpha-1D adrenergic receptor (Homo sapiens) (UniProt P25100). Description: Selectivity interaction (GPCR panel (PDSP screen)) EUB0001492b ADRA1D. Conditions: at 10 µM.
For test [20], the target named is T7, 5-hydroxytryptamine receptor 1A (Homo sapiens) (UniProt P08908).
T7 sequence (whole entry): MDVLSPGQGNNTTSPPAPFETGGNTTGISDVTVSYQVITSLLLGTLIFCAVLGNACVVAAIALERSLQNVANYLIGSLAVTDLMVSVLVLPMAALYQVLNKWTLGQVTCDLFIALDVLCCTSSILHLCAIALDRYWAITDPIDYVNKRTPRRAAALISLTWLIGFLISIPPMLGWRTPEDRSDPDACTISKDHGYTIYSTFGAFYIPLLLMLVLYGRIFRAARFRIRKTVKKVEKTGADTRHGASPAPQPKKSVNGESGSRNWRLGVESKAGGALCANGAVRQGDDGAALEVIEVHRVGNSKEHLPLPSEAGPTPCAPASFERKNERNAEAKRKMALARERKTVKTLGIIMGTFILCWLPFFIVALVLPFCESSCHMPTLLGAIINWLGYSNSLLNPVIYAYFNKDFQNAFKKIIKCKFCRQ
Description: Selectivity interaction (GPCR panel (PDSP screen)) EUB0001492b HTR1A. The following applies: at 10 µM.

The next test has as its target D(3) dopamine receptor (Homo sapiens, UniProt P35462). Description: Selectivity interaction (GPCR panel (PDSP screen)) EUB0001492b DRD3. The following applies: at 10 µM.
For test [21], the target named is 5-hydroxytryptamine receptor 1D (Homo sapiens) (UniProt P28221). Kind of test: Selectivity interaction (GPCR panel (PDSP screen)) EUB0001492b HTR1D. The following applies: at 10 µM.
Test [22] has as its target Interleukin-1 receptor-associated kinase 3 (Homo sapiens, UniProt Q9Y616). Kind of test: Selectivity interaction (NanoBRET assay (in HEK293T cells)) EUB0001492b IRAK3. The test is classed as cell-based, HEK-293T.
Test [23] concerns the target AP2-associated protein kinase 1 (Homo sapiens, UniProt Q2M2I8). Description: Selectivity interaction (Kinase panel (enzymatic assay, literature)) EUB0001492b AAK1.
The target in test [24] is 5-hydroxytryptamine receptor 7 (Homo sapiens) (UniProt P34969). Kind of test: Selectivity interaction (GPCR panel (PDSP screen)) EUB0001492b HTR7. The following applies: at 10 µM.
Test [25] has as its target T4, 4-aminobutyrate aminotransferase, mitochondrial. Described as §1.
Test [26] has as its target Cyclin-G-associated kinase (Homo sapiens, UniProt O14976). Kind of test: Selectivity interaction (Kinase panel (enzymatic assay, literature)) EUB0001492b GAK.
Test [27] addresses RAC-gamma serine/threonine-protein kinase (Homo sapiens, UniProt Q9Y243). Kind of test: Selectivity interaction (NanoBRET assay (HEK293T cells)) EUB0001563a AKT3. The following applies: hek-293t. The test is classed as cell-based.
Test [28] addresses Mitogen-activated protein kinase 15 (Homo sapiens, UniProt Q8TD08). Kind of test: Selectivity interaction (KinomeScan (DiscoverX, competition binding assay)) EUB0001547a MAPK15.
Test [29] addresses Cyclin-dependent kinase 7 (Homo sapiens, UniProt P50613). Description: Selectivity interaction (KinomeScan (DiscoverX, competition-binding assay)) EUB0001547a CDK7.
Test [30] concerns the target Homeodomain-interacting protein kinase 3 (Homo sapiens, UniProt Q9H422). Kind of test: Selectivity interaction (KinomeScan (DiscoverX, competition-binding assay)) EUB0001547a HIPK3.
Test [31] has as its target Serine/threonine-protein kinase 17B (Homo sapiens, UniProt O94768). Kind of test: Selectivity interaction (KinomeScan (competition-binding assay, DiscoverX)) EUB0001547a STK17B.
Test [32] addresses Death-associated protein kinase 1 (Homo sapiens, UniProt P53355). Kind of test: Selectivity interaction (KinomeScan (DiscoverX, competition-binding assay)) EUB0001547a DAPK1.
The target of test [33] is Calcium/calmodulin-dependent protein kinase type IV (Homo sapiens, UniProt Q16566). Description: Selectivity interaction (KinomeScan (DiscoverX, competition-binding assay)) EUB0001547a CAMK4.
The target of test [34] is T3, Mitotic checkpoint serine/threonine-protein kinase BUB1. Description: Selectivity interaction (Kinase panel (literature)) EUB0001549a BUB1.

T3 sequence (O43683 whole entry): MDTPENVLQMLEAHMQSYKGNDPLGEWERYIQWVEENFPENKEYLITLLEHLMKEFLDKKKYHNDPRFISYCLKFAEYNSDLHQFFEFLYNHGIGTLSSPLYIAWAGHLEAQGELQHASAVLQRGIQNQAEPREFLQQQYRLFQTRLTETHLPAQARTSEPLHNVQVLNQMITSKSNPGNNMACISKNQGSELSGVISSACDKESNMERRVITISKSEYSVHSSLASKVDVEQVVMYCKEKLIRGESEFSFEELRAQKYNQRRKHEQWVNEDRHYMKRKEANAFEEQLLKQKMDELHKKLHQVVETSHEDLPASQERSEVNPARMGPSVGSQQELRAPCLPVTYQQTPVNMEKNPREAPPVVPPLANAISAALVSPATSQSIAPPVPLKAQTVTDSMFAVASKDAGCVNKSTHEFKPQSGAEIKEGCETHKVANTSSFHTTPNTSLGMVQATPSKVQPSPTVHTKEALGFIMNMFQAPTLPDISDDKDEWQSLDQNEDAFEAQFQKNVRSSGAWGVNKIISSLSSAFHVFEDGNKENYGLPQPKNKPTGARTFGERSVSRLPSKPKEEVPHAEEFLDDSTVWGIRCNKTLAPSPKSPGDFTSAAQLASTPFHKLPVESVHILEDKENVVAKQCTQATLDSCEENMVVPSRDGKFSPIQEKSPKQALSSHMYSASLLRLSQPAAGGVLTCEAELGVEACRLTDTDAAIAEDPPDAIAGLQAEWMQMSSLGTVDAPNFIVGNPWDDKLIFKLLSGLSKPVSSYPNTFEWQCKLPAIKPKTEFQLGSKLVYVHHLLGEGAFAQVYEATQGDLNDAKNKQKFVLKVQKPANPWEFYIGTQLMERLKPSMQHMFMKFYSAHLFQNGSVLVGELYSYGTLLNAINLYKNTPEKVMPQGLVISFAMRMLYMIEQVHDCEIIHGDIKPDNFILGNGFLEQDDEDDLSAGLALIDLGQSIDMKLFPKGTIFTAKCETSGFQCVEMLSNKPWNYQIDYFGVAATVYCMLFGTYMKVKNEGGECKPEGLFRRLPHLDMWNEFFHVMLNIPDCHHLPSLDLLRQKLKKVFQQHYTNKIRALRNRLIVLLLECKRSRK
T4 sequence (P80404 whole entry): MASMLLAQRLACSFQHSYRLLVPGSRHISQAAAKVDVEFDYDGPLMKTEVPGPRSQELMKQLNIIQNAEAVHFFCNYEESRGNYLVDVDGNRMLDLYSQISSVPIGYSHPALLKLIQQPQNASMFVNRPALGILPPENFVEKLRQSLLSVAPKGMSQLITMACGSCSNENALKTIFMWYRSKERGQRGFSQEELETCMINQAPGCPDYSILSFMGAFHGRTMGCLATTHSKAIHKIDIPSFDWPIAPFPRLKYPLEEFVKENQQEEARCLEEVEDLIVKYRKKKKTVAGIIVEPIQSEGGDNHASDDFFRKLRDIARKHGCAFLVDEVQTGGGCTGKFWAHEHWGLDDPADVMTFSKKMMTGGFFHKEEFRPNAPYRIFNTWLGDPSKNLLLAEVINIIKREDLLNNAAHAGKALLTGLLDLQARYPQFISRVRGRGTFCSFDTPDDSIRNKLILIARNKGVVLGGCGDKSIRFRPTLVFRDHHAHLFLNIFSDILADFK
Chain of RAC-gamma serine/threonine-protein kinase (Q9Y243 whole entry): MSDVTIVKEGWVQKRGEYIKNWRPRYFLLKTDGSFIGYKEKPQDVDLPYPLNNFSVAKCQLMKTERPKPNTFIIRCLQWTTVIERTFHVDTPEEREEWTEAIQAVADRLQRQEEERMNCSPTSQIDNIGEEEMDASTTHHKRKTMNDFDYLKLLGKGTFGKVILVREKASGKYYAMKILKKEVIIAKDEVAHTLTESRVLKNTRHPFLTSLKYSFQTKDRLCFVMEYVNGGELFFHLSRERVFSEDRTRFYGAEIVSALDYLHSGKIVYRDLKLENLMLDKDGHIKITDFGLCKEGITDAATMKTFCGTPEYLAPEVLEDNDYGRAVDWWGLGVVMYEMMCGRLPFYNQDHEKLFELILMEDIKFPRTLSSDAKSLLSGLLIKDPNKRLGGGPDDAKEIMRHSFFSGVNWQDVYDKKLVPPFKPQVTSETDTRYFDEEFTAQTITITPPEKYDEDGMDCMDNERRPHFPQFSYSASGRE
Chain of Alpha-1D adrenergic receptor (Homo sapiens) (P25100 whole entry): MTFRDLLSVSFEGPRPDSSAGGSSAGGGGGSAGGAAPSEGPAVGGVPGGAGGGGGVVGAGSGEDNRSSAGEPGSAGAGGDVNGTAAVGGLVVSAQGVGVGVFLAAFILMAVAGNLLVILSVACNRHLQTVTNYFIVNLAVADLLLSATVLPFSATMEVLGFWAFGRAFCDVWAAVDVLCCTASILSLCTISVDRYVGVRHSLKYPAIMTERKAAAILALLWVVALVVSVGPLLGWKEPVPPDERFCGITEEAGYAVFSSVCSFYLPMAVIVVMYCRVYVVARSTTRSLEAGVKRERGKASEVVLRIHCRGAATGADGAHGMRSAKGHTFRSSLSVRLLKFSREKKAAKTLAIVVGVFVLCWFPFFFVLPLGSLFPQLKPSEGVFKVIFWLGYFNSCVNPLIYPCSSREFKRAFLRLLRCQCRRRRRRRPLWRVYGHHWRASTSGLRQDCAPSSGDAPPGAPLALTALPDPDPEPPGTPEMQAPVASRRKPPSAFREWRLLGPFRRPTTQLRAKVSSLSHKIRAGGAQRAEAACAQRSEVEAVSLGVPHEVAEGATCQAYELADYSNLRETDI
Chain of 5-hydroxytryptamine receptor 7 (Homo sapiens) (P34969 whole entry): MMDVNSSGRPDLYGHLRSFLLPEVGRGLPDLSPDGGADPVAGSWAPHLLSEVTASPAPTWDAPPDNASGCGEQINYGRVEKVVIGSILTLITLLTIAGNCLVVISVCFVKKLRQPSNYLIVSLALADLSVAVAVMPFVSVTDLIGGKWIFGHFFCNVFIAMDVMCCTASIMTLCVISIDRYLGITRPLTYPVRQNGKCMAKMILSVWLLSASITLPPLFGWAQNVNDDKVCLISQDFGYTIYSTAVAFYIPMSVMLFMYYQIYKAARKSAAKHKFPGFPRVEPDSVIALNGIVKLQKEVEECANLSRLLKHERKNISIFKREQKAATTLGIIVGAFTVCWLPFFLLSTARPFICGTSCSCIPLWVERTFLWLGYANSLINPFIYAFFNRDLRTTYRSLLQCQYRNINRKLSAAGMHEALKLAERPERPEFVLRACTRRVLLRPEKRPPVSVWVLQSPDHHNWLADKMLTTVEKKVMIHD
Chain of D(1A) dopamine receptor (P21728 whole entry): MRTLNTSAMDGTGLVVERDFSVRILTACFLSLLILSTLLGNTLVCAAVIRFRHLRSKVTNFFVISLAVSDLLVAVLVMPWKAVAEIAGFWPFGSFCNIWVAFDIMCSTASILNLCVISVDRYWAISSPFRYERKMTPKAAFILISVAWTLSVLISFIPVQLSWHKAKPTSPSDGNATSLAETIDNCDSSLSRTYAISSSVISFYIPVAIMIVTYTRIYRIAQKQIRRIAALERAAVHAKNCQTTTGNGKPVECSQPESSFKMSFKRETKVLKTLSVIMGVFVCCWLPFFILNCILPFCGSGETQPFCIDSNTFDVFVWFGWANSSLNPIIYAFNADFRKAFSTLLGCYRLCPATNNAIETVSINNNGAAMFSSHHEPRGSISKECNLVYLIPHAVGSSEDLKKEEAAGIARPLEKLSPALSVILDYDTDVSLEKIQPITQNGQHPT
Chain of Interleukin-1 receptor-associated kinase 3 (Q9Y616 whole entry): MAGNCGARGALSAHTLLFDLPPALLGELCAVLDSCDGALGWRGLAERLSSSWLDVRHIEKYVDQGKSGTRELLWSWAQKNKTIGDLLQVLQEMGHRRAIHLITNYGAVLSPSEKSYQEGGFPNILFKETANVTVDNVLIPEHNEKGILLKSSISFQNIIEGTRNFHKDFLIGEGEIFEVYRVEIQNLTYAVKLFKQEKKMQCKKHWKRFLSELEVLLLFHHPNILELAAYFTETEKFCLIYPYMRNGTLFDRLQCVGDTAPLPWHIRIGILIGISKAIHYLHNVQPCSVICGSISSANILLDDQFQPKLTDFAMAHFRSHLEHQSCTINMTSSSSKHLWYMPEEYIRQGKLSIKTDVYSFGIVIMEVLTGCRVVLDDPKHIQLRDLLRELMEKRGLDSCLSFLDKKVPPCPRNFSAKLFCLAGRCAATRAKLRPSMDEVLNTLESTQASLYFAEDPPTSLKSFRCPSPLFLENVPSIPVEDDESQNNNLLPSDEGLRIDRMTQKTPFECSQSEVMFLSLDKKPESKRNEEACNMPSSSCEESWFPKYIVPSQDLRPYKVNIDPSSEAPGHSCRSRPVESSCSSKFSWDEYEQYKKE
Chain of Beta-3 adrenergic receptor (Homo sapiens) (P13945 whole entry, looked up): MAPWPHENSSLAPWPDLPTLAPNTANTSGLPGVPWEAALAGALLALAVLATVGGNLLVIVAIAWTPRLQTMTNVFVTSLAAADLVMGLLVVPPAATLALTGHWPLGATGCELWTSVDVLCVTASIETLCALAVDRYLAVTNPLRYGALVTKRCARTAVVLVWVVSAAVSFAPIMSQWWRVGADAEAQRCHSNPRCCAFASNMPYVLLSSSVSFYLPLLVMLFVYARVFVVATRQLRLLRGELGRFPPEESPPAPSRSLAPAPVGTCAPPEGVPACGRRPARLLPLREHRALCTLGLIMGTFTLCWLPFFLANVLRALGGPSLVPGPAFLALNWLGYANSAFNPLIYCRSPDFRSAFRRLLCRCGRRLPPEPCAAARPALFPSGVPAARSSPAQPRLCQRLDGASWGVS
Chain of 5-hydroxytryptamine receptor 1D (Homo sapiens) (P28221 whole entry): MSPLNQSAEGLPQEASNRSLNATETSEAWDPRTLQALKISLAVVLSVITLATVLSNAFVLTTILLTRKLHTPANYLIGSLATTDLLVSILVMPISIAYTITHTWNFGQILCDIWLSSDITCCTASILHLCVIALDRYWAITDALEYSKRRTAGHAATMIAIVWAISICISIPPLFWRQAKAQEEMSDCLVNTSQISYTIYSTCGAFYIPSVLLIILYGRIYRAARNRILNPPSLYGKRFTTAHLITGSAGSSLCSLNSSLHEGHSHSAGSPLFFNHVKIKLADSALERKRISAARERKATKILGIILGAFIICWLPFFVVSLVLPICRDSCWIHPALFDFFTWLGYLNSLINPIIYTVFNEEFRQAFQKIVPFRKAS

Consider `COc1cnccc1Nc1nc(-c2nn(Cc3c(F)cc(OCCO)cc3F)c3ccccc23)ncc1OC`, for which the % of inhibition is 52% in test [1]; 53% in test [3]; 60% in test [5]; 54% in test [7]; 67% on Adenosine receptor A2a; 71% in test [11]. The IC50 in test [2] was determined as 0.37 µM; in test [8], 0.0033 µM; in [9], 0.0043 µM. Besides, in test [4], the Kd was greater than 30 µM. Also, the % of control in [6] was 6.7%; in test [10] it was 0.6%.
On to `CCC(F)(F)c1cc(N2CCC(S(C)(=O)=O)CC2)nc2sc(C(N)=O)c(N)c12` [BI-605906], for which the % of inhibition in test [12] came out at 34.5%; in test [13], 44.6%; in test [14], 51.8%; on D(2) dopamine receptor, 69.8%; in test [15] it was 18.9%; in test [16], 13.7%. Also, the % of inhibition came to 21.1% in [17]; 18% in test [18]; 25.7% at D(1A) dopamine receptor; 36.7% in [19]; 14.4% in [20]; 51.5% on D(3) dopamine receptor. Besides, the % of inhibition worked out at 26.9% in test [21] and 13.7% in test [24]. The IC50 in [22] was greater than 20 µM; in test [23], 0.188 µM; in test [26] it was 0.272 µM. In [25], this molecule showed a Ki of 2.62 µM.
`C=CC(=O)Nc1ccc2[nH]c(=O)n(C3CCN(Cc4ccc(-c5ccc6c(c5)NC(=O)CO6)cc4)CC3)c2c1` [RL2578] yielded an IC50 in [27] of 18 µM.
Take `N[C@@H]1CCCN(c2c(/C=C3\SC(=O)NC3=O)cccc2-c2ccccc2)C1`: the Kd came to 0.005 µM in test [28]; 0.038 µM in test [29]; 0.48 µM in test [30]; 0.93 µM in test [31]; 0.42 µM in test [32]; 0.36 µM in test [33].
In [34], `COc1ccccc1Nc1nc(-c2nn(Cc3c(F)cc(OCCCO)cc3F)c3ccccc23)ncc1OC` came in with an IC50 greater than 20 µM.
